Test results as given in ChEMBL document CHEMBL1150359, “Identification of non-lipid LPA3 antagonists by virtual screening” (Bioorg Med Chem, 2008).
Active and inactive are the calls of the source. No cut-off for these calls is given here. Peptide text beside a SMILES is read from it. * marks the point of attachment. Dnp = O=[N+]([O-])c1ccc(*)c([N+](=O)[O-])c1

Key:
[1] = molecular target: T1, Lysophosphatidic acid receptor 1 (Homo sapiens, UniProt Q92633); assay: Activity at LPA1 receptor expressed in rat RH7777 cells assessed as inhibition of LPA-induced intracellular calcium concentration at 30 uM; assay type: functional, cell-based
T1 sequence (Q92633 whole entry): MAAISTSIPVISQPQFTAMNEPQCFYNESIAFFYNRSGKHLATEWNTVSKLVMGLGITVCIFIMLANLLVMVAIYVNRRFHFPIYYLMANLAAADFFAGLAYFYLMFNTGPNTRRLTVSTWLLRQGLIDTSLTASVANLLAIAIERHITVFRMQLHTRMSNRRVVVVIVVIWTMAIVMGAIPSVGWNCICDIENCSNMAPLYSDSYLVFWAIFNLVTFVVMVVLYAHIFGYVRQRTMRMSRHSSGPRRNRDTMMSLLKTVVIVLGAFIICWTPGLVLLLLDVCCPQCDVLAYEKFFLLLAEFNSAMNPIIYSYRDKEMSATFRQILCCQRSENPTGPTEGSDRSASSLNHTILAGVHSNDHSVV

[2] = molecular target: T2, Lysophosphatidic acid receptor 2 (Homo sapiens, UniProt Q9HBW0); assay: Activity at LPA2 receptor expressed in rat RH7777 cells assessed as inhibition of LPA-induced intracellular calcium concentration at 30 uM; assay type: functional, cell-based
T2 sequence (Q9HBW0 whole entry): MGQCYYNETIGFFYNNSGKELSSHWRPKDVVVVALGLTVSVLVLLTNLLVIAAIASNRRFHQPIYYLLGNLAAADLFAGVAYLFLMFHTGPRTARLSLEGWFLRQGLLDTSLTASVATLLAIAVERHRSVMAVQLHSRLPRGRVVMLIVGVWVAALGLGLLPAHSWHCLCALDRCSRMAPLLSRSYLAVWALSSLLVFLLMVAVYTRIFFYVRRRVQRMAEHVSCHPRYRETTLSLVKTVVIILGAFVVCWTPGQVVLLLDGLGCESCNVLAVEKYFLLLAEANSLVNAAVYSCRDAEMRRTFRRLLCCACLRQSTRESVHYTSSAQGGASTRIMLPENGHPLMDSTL

[3] = molecular target: T3, Lysophosphatidic acid receptor 3 (Homo sapiens, UniProt Q9UBY5); assay: (§1) Antagonist activity at LPA3 receptor expressed in rat RH7777 cells assessed as inhibition of LPA-induced intracellular calcium concentration; assay type: functional, cell-based
T3 sequence (Q9UBY5 whole entry): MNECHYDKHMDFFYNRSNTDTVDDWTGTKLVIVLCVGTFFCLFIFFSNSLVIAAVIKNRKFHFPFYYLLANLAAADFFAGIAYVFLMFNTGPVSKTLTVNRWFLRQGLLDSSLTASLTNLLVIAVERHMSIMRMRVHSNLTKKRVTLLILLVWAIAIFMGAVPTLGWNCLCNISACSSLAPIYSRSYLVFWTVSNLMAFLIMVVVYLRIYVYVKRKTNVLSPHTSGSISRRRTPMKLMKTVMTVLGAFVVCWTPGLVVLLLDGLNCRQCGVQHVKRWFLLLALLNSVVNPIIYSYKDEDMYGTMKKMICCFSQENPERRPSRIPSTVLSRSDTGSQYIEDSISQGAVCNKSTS

[4] = molecular target: T4, Lysophosphatidic acid receptor 3 (Homo sapiens) (UniProt Q9UBY5); assay: Activity at LPA3 receptor expressed in rat RH7777 cells assessed as inhibition of LPA-induced intracellular calcium concentration at 30 uM; assay type: functional, cell-based
T4 sequence (whole entry): T3 sequence (Q9UBY5 whole entry)

[5] = molecular target: T2, Lysophosphatidic acid receptor 2; assay: Antagonist activity at LPA2 receptor expressed in rat RH7777 cells assessed as inhibition of LPA-induced intracellular calcium concentration; assay type: functional, cell-based
[6] = molecular target: T4, Lysophosphatidic acid receptor 3 (Homo sapiens); assay: as §1; assay type: functional, cell-based
[7] = molecular target: T1, Lysophosphatidic acid receptor 1; assay: Antagonist activity at LPA1 receptor expressed in rat RH7777 cells assessed as inhibition of LPA-induced intracellular calcium concentration; assay type: functional, cell-based
[8] = molecular target: T1, Lysophosphatidic acid receptor 1; assay: Agonist activity at LPA1 receptor expressed in rat RH7777 cells assessed as LPA-induced intracellular calcium response; assay type: functional, cell-based
[9] = molecular target: T2, Lysophosphatidic acid receptor 2; assay: Agonist activity at LPA2 receptor expressed in rat RH7777 cells assessed as LPA-induced intracellular calcium response; assay type: functional, cell-based
[10] = molecular target: T3, Lysophosphatidic acid receptor 3; assay: Agonist activity at LPA3 receptor expressed in rat RH7777 cells assessed as LPA-induced intracellular calcium response; assay type: functional, cell-based
[11] = molecular target: T3, Lysophosphatidic acid receptor 3; assay: Inhibition of LPA3 receptor
[12] = molecular target: T4, Lysophosphatidic acid receptor 3 (Homo sapiens); assay: Activity at LPA3 receptor expressed in rat RH7777 cells assessed as potentiation of LPA-induced intracellular calcium concentration; assay type: functional, cell-based

O=C(O)/C=C\C(=O)Nc1cccc(NC(=O)c2ccccc2)c1
Imax [1]: 34.6% | Imax [2]: 46% | IC50 [3]: 347 nM | Ki [3]: 317 nM

O=C(O)/C=C\C(=O)Nc1cccc(NC(=O)Cc2ccccc2)c1
Imax [1]: 52.2% | Imax [4]: 16%

O=C(O)/C=C/C(=O)Nc1ccc(-c2ccc(NC(=O)/C=C/C(=O)O)cc2)cc1
Imax [1]: 59% | IC50 [5]: 28.3 nM | Ki [5]: 21.1 nM | IC50 [3]: 13800 nM | Ki [3]: 7020 nM

NCC(=O)N[C@@H](CSc1ccc([N+](=O)[O-])cc1[N+](=O)[O-])C(=O)N[C@@H](CCC(=O)O)C(=O)O (H-Gly-Cys(Dnp)-Glu-OH)
Imax [6]: 69.8% | IC50 [3]: 24 nM

Nc1ccc(C(=O)Nc2ccc(C(=O)Nc3ccc4c(O)cc(S(=O)(=O)O)cc4c3)cc2)cc1
IC50 [7]: > 7300 nM | Imax [7]: 59.3% | IC50 [5]: > 9400 nM | Imax [5]: 88% | Imax [6]: 53.7%

CCOC(=O)c1ccc(/C=C/c2ccc(S(=O)(=O)O)cc2)cc1
Emax [7]: 180% | Emax [2]: 113% | Emax [4]: 214% | EC50 [8]: > 12300 nM | EC50 [9]: > 11400 nM | EC50 [10]: > 11800 nM

O=C(O)/C=C/C(=O)Nc1cccc(NC(=O)/C=C/C(=O)O)c1
IC50 [7]: 220 nM | Ki [7]: 50 nM | IC50 [5]: 21.8 nM | Ki [5]: 20.8 nM

CCCCCCC(=O)OC[C@H](COP(O)(O)=S)OC(=O)CCCCCC
IC50 [11]: 184 nM

O=C(O)/C=C/C(=O)Nc1cccc(NC(=O)/C=C/C(=O)O)c1C(=O)O
Imax [5]: 53.3% | Imax [6]: 81.7%

O=C(O)/C=C/C(=O)Nc1ccc(Oc2cccc(Oc3ccc(NC(=O)/C=C/C(=O)O)cc3)c2)cc1
IC50 [7]: 27400 nM | Ki [7]: 13500 nM | IC50 [5]: 8.9 nM | Ki [5]: 7.2 nM | IC50 [3]: 1230 nM | Ki [3]: 310 nM

CCCCCCC(=O)OC[C@H](COP(=O)(O)O)OC(=O)CCCCCC
IC50 [11]: 143 nM

O=P(O)(O)OC[C@H]1O[C@@H](n2cnc3c(NCc4ccccc4)ncnc32)[C@H](O)[C@@H]1O
Activity [12]: Active
